Values of other authors as cited in US20060069238A1, “Synthetic glyco-lipo-peptides as vaccines” (Biomira, Inc., priority 2002, published 2006).

Settings: n-octanol:water, experimental database of LogKow; cited from earlier work

## Cc1c[nH]c2ccccc12 [3-methyl indole]
  LogP Exp: 2.60
